With `Nc1cnc(Cl)cn1`, the log partition coefficient (logP) was 0.67. Turning to `Clc1ncccn1`, the logP amounted to 0.36. In the case of `NC(=O)c1cccnn1` it was -0.73; in that of `COC(=O)c1ccnnc1`, -0.27; in that of `CCOC(=O)c1ccnnc1`, 0.23.

For the compound `CN(C)c1ccncn1`, the logP was 0.58. In the case of `CCOc1nccnc1C` it was 1.82; in that of `N#Cc1ccnnc1`, -0.63.

`Cc1cncnc1` came in with a logP of 0.01.

`COc1ccncn1` had a logP of 0.54.

On to `N#Cc1ncccn1`, for which the log partition coefficient (logP) is -0.31. To `NC(=O)c1ccncn1` belongs -0.68; to `NC(=O)c1cncnc1`, -0.92. To `CN(C)c1ncccn1` belongs 1.07; to `CCOC(=O)c1ncccn1`, -0.31; to `COC(=O)c1ccoc1`, 1.28.

With `Cc1ncccn1`, the logP is -0.05. To `Cc1cccnn1` belongs -0.35; to `CCOc1cncnc1`, 0.56; to `CC(=O)Nc1ccncn1`, 0.03. `CSc1ncccn1` registered a logP of 1.01.

Take `COc1cccnn1`: the logP was determined as 0.08. In turn, `Clc1cccnn1` yielded a logP of 0.1. `N#Cc1ncc(Cl)nc1C#N` yielded a logP of 0.95. To `Cc1ccnnc1` belongs -0.32. To `CCOc1ncccn1` belongs 0.74; to `COc1cncnc1`, 0.07. `CCOc1cccnn1` registered a logP of 0.63. In the case of `CC(=O)Nc1cncnc1` it was -0.22; in that of `CCOC(=O)c1cncnc1`, 0.52.

`COC(=O)c1cccnn1` showed a logP of -0.43.

The compound `Nc1ccnnc1` displayed a logP of -0.53. In the case of `CN(C)c1cncnc1`, the log partition coefficient (logP) was found to be 0.46. The compound `NC(=O)c1ncccn1` displayed a logP of -1.2. In turn, `Fc1cncc(F)n1` came in with a logP of 0.74. To `Nc1ccncn1` belongs -0.25; to `COC(=O)c1ccncn1`, -0.27; to `COc1ccnnc1`, -0.31. As for `COC(=O)c1cncnc1`, the lipophilicity (logP) stood at 0.03. In the case of `CCc1nccnc1OC` it was 1.8. For the compound `CCCCc1nc(C#N)c(C#N)nc1C`, the logP was 2.3. `Fc1ncccn1` displayed a logP of 0.02.

With `NC(=O)c1ccnnc1`, the logP is -0.96. The compound `COC(=O)c1ncccn1` returned a logP of -0.71.

For orientation: logP means the decadic logarithm of the partition coefficient of the neutral form, usually between octanol and water. A higher logP goes with higher lipophilicity.

Values taken from the OPERA property sets (Mansouri et al. 2018).
